Patent publication US8691761B2, “Somatostatin receptor 2 antagonists” (priority 2006, dated 2014)
Bridge positions count the residues as written; N and C are the ends. Square brackets hold non-standard residues; d marks the D form. Peptide text beside a SMILES is read from it. * marks the point of attachment. ξ: configuration not given here. Phe(4-NO2) = N[C@@H](Cc1ccc([N+](=O)[O-])cc1)C(=O)O; dPhe(4-NHCONH2) = NC(=O)Nc1ccc(C[C@@H](N)C(=O)O)cc1; Phe(4-NHCONH2) = NC(=O)Nc1ccc(C[C@H](N)C(=O)O)cc1; dTrp(5-F) = N[C@H](Cc1c[nH]c2ccc(F)cc12)C(=O)O; Phe(4-Cl) = N[C@@H](Cc1ccc(Cl)cc1)C(=O)O; ξDihydroorotoyl = O=C1CC(C(=O)*)NC(=O)N1; 2Nal = N[C@@H](Cc1ccc2ccccc2c1)C(=O)O; ξPhe(4-NH2) = Nc1ccc(CC(N)C(=O)O)cc1

Legend:
human sst2A receptor = biological target: T1, human sst2A receptor (Homo sapiens, UniProt P30874); experiment: Immunofluorescence-based sst2 internalization assay in HEK-sst2 cells; format: cell-based; conditions: for sst2-internalization tested in vitro in HEK-sst2 cells (function): n ≧ 2
T1 construct: expressed in transfected cells; host or cells: HEK293 (HEK-sst2)
T1 sequence (P30874 whole entry): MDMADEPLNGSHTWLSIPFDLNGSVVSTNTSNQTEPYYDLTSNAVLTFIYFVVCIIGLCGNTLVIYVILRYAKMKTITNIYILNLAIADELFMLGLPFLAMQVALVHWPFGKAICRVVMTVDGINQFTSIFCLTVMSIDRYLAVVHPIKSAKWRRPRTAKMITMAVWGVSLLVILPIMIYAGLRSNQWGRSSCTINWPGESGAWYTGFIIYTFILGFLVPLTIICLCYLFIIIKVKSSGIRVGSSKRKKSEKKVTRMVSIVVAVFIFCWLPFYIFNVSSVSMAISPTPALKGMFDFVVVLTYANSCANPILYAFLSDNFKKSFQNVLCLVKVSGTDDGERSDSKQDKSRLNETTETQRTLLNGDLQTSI
Description: Immunofluorescence-based sst2 Internalization Assay. Immunofluorescence microscopy-based internalization assay for sst2 was performed with HEK-sst2 using the sst2-specific antibody R2-88 as described elsewhere herein. HEK-sst2 cells were treated either with vehicle alone, the sst2 agonist [Tyr^3]-octreotide at a concentration of 100 nM, [Tyr^3]-octreotide at a concentration of 100 nM in the presence of an excess of the SRIF analogues to be tested (100 times the concentration of [Tyr^3]-octreotide), or with the SRIF analogues to be tested alone at a concentration of 10 μM, and then processed for immunofluorescence microscopy as described previously.

hSSTR2 = biological target: T2, hSSTR2 (Homo sapiens, UniProt P30874); experiment: Receptor autoradiography, displacement of 125I-[Leu8,D-Trp22,Tyr25]-SRIF-28 from membrane pellet sections; format: binding; conditions: for IC50: Table 3, mean ± SEM when N ≧ 3, read-out: sst2 binding affinity (IC50)
T2 construct: expressed in transfected cells; host or cells: CHO-K1 or CCL39 cells
T2 sequence (P30874 whole entry): as above
Description: (§1) Generally, recombinant cells expressing the receptor are washed and homogenized to prepare a crude protein homogenate in a suitable buffer. In a typical assay, an amount of protein from the cell homogenate is placed into a small volume of an appropriate assay buffer at an appropriate pH. Candidate substances, such as potential SRIF agonists and antagonists, are added to the admixture in convenient concentrations, and the interaction between the candidate substance and the receptor polypeptide is monitored.
(§2) In vitro Bioassay: The effects of the various somatostatin analogs were tested in vitro for their ability to bind to isolated cloned receptors expressed on CHO-K1 cells and CCL39 cells. The molecular cloning of the genes encoding multiple somatostatin receptor subtypes permitted the individual expression of these receptors in mammalian cells and the characterization of their respective pharmacological profiles.
(§3) CHO-K1 cells were grown in Ham's F-12 medium, and CCL39 cells were grown in Dulbecco's modified Eagle's medium/Ham's F-12(1:1) mix, supplemented with 10% fetal bovine serum, 100 U/ml penicillin and 100 μg/ml streptomycin, in humidified air containing 5% CO2 at 37° C. Cells were washed twice with and scraped into ice-cold 0.05 M Tris-HCl (pH 7.4), collected by centrifugation, and homogenized using a rotor/stator/system in the same buffer. After centrifugation at 120 g for 5 min at 4° C., the supernatant was collected and centrifuged again at 48,000 g for 30 min at 4° C. The resulting pellet was resuspended in ice-cold Tris buffer, transferred into a microfuge tube, and centrifuged at 20,000 g for 15 min at 4° C. After withdrawal of the supernatant, the membrane pellet was stored at −80° C.
(§4) Receptor autoradiography was performed on 20 μm thick cryostat sections of the membrane pellets, mounted on microscope slides, and then stored at −20° C. […] Increasing concentrations of the unlabeled peptide were used ranging from 0.1-1000 nM. […] IC50 values were calculated after quantification of the data using a computer-assisted image processing system as known in this art.
(§5) The numbers in parentheses indicate the number of times the particular binding test was carried out.
(§6) Receptor autoradiography. Cell membrane pellets were prepared as previously described, and stored at −80° C. Receptor autoradiography was performed on 20-μm thick cryostat (Microm HM 500, Walldorf, Germany) sections of the membrane pellets, mounted on microscope slides, and then stored at −20° C. […] After a brief dip in distilled water to remove excess salts, the sections were dried quickly and exposed for 1 week to Kodak BioMax MR film. IC50 values were calculated after quantification of the data using a computer-assisted image processing system as described previously. […] (Reubi, J. C. “In vitro identification of vasoactive intestinal peptide receptors in human tumors: Implications for tumor imaging.” J. Nucl. Med. 1995, 36, 1846-1853).
(§7) To investigate their ssts binding properties, the peptides were tested for their ability to bind to cryostat sections from membrane pellets of cells expressing the five human ssts (Table 3).

hSSTR3 = biological target: T3, hSSTR3 (Homo sapiens, UniProt P32745); experiment: as above; format: binding; conditions: Table 3; mean ± SEM when N ≧ 3; read-out: sst3 binding affinity (IC50)
T3 construct: expressed in transfected cells; host or cells: CHO-K1 or CCL39 cells
T3 sequence (P32745 whole entry): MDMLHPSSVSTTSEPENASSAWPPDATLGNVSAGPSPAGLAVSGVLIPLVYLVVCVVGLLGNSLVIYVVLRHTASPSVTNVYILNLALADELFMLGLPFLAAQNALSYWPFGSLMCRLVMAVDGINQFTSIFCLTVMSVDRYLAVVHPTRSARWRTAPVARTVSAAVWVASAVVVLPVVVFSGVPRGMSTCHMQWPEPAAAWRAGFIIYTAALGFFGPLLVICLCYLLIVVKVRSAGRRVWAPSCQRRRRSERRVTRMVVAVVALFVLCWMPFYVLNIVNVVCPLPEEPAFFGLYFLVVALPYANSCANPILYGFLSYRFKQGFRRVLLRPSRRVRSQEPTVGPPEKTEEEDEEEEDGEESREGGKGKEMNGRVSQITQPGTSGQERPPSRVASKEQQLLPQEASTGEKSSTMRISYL
Description: as §1, §2, §3, §4, §5, §6, §7

hSSTR1 = biological target: T4, hSSTR1 (Homo sapiens, UniProt P30872); experiment: as above; format: binding; conditions: Table 3; mean ± SEM when N ≧ 3; read-out: sst1 binding affinity (IC50)
T4 construct: expressed in transfected cells; host or cells: CHO-K1 or CCL39 cells
T4 sequence (P30872 whole entry): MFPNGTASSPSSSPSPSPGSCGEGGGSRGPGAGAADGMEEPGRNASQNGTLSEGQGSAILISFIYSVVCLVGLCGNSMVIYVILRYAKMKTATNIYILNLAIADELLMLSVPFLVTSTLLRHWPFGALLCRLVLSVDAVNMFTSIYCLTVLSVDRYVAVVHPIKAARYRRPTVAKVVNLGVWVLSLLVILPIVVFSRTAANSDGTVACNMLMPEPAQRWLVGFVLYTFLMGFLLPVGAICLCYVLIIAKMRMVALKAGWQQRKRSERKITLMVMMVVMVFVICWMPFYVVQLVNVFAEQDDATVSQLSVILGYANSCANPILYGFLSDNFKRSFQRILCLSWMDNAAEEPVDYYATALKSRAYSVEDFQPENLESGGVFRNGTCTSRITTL
Description: as §1, §2, §3, §4, §5, §6, §7

hSSTR4 = biological target: T5, hSSTR4 (Homo sapiens, UniProt P31391); experiment: as above; format: binding; conditions: Table 3; mean ± SEM when N ≧ 3; read-out: sst4 binding affinity (IC50)
T5 construct: expressed in transfected cells; host or cells: CHO-K1 or CCL39 cells
T5 sequence (P31391 whole entry): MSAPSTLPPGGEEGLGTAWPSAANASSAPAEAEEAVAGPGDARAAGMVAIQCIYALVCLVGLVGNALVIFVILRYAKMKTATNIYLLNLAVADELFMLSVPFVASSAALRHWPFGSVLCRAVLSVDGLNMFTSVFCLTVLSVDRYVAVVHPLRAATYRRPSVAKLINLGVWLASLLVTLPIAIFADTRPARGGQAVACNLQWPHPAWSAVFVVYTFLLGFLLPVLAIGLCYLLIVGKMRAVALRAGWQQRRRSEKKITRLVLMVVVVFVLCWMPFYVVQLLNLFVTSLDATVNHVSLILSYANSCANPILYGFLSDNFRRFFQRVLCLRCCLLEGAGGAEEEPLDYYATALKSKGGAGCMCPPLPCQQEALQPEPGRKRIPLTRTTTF
Description: as §1, §2, §3, §4, §5, §6, §7

hSSTR5 = biological target: T6, hSSTR5 (Homo sapiens, UniProt P35346); experiment: as above; format: binding; conditions: Table 3; mean ± SEM when N ≧ 3; read-out: sst5 binding affinity (IC50)
T6 construct: expressed in transfected cells; host or cells: CHO-K1 or CCL39 cells
T6 sequence (P35346 whole entry): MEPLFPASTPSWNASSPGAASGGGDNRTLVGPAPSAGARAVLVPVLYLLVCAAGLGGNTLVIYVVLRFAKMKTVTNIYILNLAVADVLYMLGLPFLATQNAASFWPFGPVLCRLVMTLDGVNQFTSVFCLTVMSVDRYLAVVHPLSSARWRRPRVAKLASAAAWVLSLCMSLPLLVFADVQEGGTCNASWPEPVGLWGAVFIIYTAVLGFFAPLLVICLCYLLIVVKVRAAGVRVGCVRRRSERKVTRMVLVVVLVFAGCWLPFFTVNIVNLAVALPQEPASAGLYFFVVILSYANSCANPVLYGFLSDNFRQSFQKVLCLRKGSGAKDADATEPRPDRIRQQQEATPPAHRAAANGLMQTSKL
Description: as §1, §2, §3, §4, §5, §6, §7

sst2 = sst2 (Homo sapiens, UniProt P30874); experiment: Calcium release assay in HEK-sst2 cells (Fluo-4NW); format: cell-based; set-up: expressed in transfected cells; host or cells: HEK293 (HEK-sst2); conditions: n ≧ 2
Sequence of sst2 (P30874 whole entry): as the sequence (P30874 whole entry) above
Description: Calcium release assay. Intracellular calcium release was measured in HEK-sst2 using the Fluo-4NW Calcium Assay kit as described previously (Magrys, et al. “The role of anti-alpha-enolase autoantibodies in pathogenicity of autoimmune-mediated retinopathy.” J. Clin. Immunol. 2007, 27, 181-192; Michel et al. “The Nef protein of human immunodeficiency virus is a broad-spectrum modulator of chemokine receptor cell surface levels that acts independently of classical motifs for receptor endocytosis and Galphai signaling.” Mol. Biol. Cell. 2006, 17, 3578-3590). In brief, HEK-sst2 cells were seeded (25,000 cells per well) in poly-D-lysine (20 μg/mL) coated 96 well plates and cultured for 1 day at 37° C. and 5% CO2 in culture medium. At the day of the experiment, the cells were washed with assay buffer (1×HBSS, 20 mM HEPES) containing 2.5 mM probenecid, and then loaded with 100 μL/well Fluo-4NW dye in assay buffer containing 2.5 mM probenecid for 30 min at 37° C. and 5% CO2 and then for further 30 min at room temperature. To measure the intracellular calcium mobilization after stimulation with the SRIF analogues to be tested, the dye-loaded cells were transferred to a SpectraMax M2^e (Molecular Devices, Sunnyvale, Calif.). Intracellular calcium mobilization was recorded in a kinetic for 60 sec at room temperature monitoring fluorescence emission at 520 nm (with λex=485 nm) in the presence of the analogues at the concentrations indicated. Maximum fluorescence (Fmax) was measured after the addition of 25 μM ionomycin. Baseline (control) measurements were taken for dye-loaded, untreated cells. Data are shown as percentage of Fmax (% Fmax) as reported previously. (Magrys, et al. J. Clin. Immunol. 2007, 27, 181-192; Michel et al. Mol. Biol. Cell. 2006, 17, 3578-3590). All experiments were repeated at least three times in triplicate.

Compound | sst2-internalization tested in vitro in HEK-sst2 cells (function) (human sst2A receptor) | IC50 (hSSTR2) [nM] | IC50 (hSSTR3) [nM] | IC50 (hSSTR1) [nM] | IC50 (hSSTR4) [nM] | IC50 (hSSTR5) [nM] | Calcium release tested in vitro in HEK-sst2 cells (function) (sst2) | loss of binding affinity for sst2 as compared to 7 (hSSTR2) [fold] | sst2 internalization, given alone (human sst2A receptor; FIG. 2, antagonists at 10 μM)
C[C@@H](O)[C@@H]1NC(=O)[C@H](CCCCN)NC(=O)[C@@H](Cc2c[nH]c3ccccc23)NC(=O)[C@H](Cc2ccc(NC(N)=O)cc2)NC(=O)[C@H](NC(=O)[C@H](Cc2ccc(Cl)cc2)NC(=O)CCOCCOCCOCCNC(=O)CN2CCN(CC(=O)O)CCN(CC(=O)O)CCN(CC(=O)O)CC2)CSSC[C@@H](C(=O)N[C@@H](Cc2ccc3ccccc3c2)C(N)=O)NC1=O [compound 16, DOTA-Peg-Cpa-c[DCys-Aph(Cbm)-DTrp-Lys-Thr-Cys]-2Nal-NH2] | Antagonist | – | – | – | – | – | – | – | –
C[C@@H](O)[C@@H]1NC(=O)[C@H](CCCCN)NC(=O)[C@@H](Cc2c[nH]c3ccc(F)cc23)NC(=O)[C@H](Cc2ccc(NC(N)=O)cc2)NC(=O)[C@H](NC(=O)[C@@H](N)Cc2ccc(Cl)cc2)CSSC[C@@H](C(=O)N[C@@H](Cc2ccc3ccccc3c2)C(N)=O)NC1=O [compound 25, H2N-Cpa-c[DCys-Aph(Cbm)-5F-DTrp-Lys-Thr-Cys]-2Nal-NH2] (H-[Phe(4-Cl)][dC][Phe(4-NHCONH2)][dTrp(5-F)]KTC[2Nal]-NH2; disulfide 2-7) | Antagonist | 4.9 ± 1.5 | 50 ± 5.8 | > 1000 | 287 ± 64 | 94 ± 34 | Antagonist | – | –
C[C@@H](O)[C@@H]1NC(=O)[C@H](CCCCN)NC(=O)[C@@H](Cc2c[nH]c3ccccc23)NC(=O)[C@H](N(C)C(=O)c2ccccc2)NC(=O)[C@H](NC(=O)[C@@H](N)Cc2ccc(Cl)cc2)CSSC[C@@H](C(=O)N[C@@H](Cc2ccc3ccccc3c2)C(N)=O)NC1=O [compound 9, H2N-Cpa-c[DCys-L-Agl(NMe.benzoyl)-DTrp-Lys-Thr-Cys]-2Nal-NH2] | Antagonist | – | – | – | – | – | – | 3 | –
C[C@@H](O)[C@@H]1NC(=O)[C@H](CCCCN)NC(=O)[C@@H](Cc2c[nH]c3ccccc23)NC(=O)[C@H](Cc2ccc(NC(N)=O)cc2)NC(=O)[C@H](NC(=O)[C@@H](N)Cc2ccc(Cl)cc2)CSSC[C@@H](C(N)=O)NC1=O [compound 17, H2N-Cpa-c[DCys-Aph(Cbm)-DTrp-Lys-Thr-Cys]-NH2] (H-[Phe(4-Cl)][dC][Phe(4-NHCONH2)][dW]KTC-NH2; disulfide 2-7) | Antagonist | 5.9 ± 1.8 | 138 ± 52 | > 1000 | > 1000 | 461 ± 106 | Antagonist | – | –
C[C@@H](O)[C@@H]1NC(=O)[C@H](CCCCN)NC(=O)[C@@H](Cc2ccc(NC(N)=O)cc2)NC(=O)[C@H](Cc2ccc(O)cc2)NC(=O)[C@H](NC(=O)[C@@H](N)Cc2ccc([N+](=O)[O-])cc2)CSSC[C@@H](C(=O)N[C@@H](Cc2ccc3ccccc3c2)C(N)=O)NC1=O [compound 4, H2N-pNO2Phe-c[DCys-Tyr-DAph(Cbm)-Lys-Thr-Cys]-2Nal-NH2] (H-[Phe(4-NO2)][dC]Y[dPhe(4-NHCONH2)]KTC[2Nal]-NH2; disulfide 2-7) | Antagonist | 2.6 | 384 | > 1000 | > 1000 | > 1000 | – | – | –
[Tyr^3]-octreotide [reference compound] | – | – | – | – | – | – | agonistic effect | – | can induce sst2 internalization
C[C@@H](O)[C@@H]1NC(=O)[C@H](CCCCN)NC(=O)[C@@H](Cc2ccc(NC(N)=O)cc2)NC(=O)C(Cc2ccc(NC(=O)C3CC(=O)NC(=O)N3)cc2)NC(=O)[C@H](NC(=O)[C@@H](N)Cc2ccc(Cl)cc2)CSSC[C@@H](C(=O)N[C@@H](Cc2ccc3ccccc3c2)C(N)=O)NC1=O (stereo partly drawn) [compound 29, H2N-Cpa-c[DCys-Aph(Hor)-DAph(Cbm)-Lys-Thr-Cys]-2Nal-NH2] (H-[Phe(4-Cl)][dC][ξPhe(4-NH2)](ξDihydroorotoyl)[dPhe(4-NHCONH2)]KTC[2Nal]-NH2; disulfide 2-7) | Antagonist | – | – | – | – | – | Antagonist | – | –
C[C@@H](O)[C@@H]1NC(=O)[C@H](CCCCN)NC(=O)[C@@H](Cc2c[nH]c3ccccc23)NC(=O)[C@H](Cc2ccc(NC(N)=O)cc2)NC(=O)[C@H](NC(=O)[C@@H](N)Cc2ccc(Cl)cc2)CSSC[C@@H](C(=O)N[C@@H](Cc2ccc3ccccc3c2)C(N)=O)NC1=O [compound 12, H2N-Cpa-c[DCys-Aph(Cbm)-DTrp-Lys-Thr-Cys]-2Nal-NH2] | Antagonist | – | – | – | – | – | Antagonist | – | –
CC(=O)N[C@@H](Cc1ccc([N+](=O)[O-])cc1)C(=O)N[C@@H]1CSSC[C@@H](C(=O)N[C@H](Cc2ccc(O)cc2)C(N)=O)NC(=O)[C@H]([C@@H](C)O)NC(=O)[C@H](CCCCN)NC(=O)[C@@H](Cc2c[nH]c3ccccc23)NC(=O)[C@H](Cc2ccc(O)cc2)NC1=O [compound 1, Ac-pNO2Phe-c[DCys-Tyr-DTrp-Lys-Thr-Cys]-DTyr-NH2, reference compound] | Antagonist | – | > 1000 | – | – | – | – | – | –
